Source: EP4745138A1, “THIO-GLUTARIMIDO ISOINDOLINONE DERIVATIVE, BIFUNCTIONAL PROTEIN DEGRADER CONTAINING SAME, AND USES THEREOF” (Gluetacs Therapeutics (Shanghai) Co., Ltd., priority 2023, dated 2025)
Read-outs that look alike come from different tables or passages of the source.

How the values were obtained:
CDK4 = target: T1, CDK4 (Homo sapiens, UniProt P11802); assay: Western blot, target protein degradation in MDA-MB-231 Cell; format: cell-based; conditions: substrate protein remaining %, treated at 500 nM and 50 nM, 24 hours
T1 construct: endogenous in cells; host or cells: MDA-MB-231
Protocol: (§1) Conventional Western blot assay was performed to evaluate the effects of the compounds of the present disclosure on the expression of target proteins in cells.
(§2) (1) Cell Seeding and Protein Harvesting: The selected cells were processed according to the cell seeding procedure and protein harvesting procedure in Table II-2. Table II-2 Cell Seeding and Protein Harvesting Procedures
(§3) (2) To the collected supernatant, 5X SDS sample loading buffer was added, followed by denaturation at 95°C for 5 minutes. The denatured samples were then separated by SDS-PAGE electrophoresis on a polyacrylamide gel. Proteins were transferred to a nitrocellulose membrane (0.45 µm NC membrane), blocked with blocking buffer at room temperature for 1 hour, and subjected to antibody incubation and development procedures according to the antibody manufacturer's instructions (Cell Signaling Technology).
(§4) Half-Maximal Degradation Concentration value (the drug concentration required for degrading proteins by 50%, abbreviated as DC50) reads method: comparing the grayscale values of Western blot bands from drug-treated samples with those from blank DMSO-treated controls, and identifying the drug concentration range at which the grayscale value is half that of the DMSO-treated control bands.
(§5) DC50 values can be calculated using ImageJ software to measure grayscale values of Western blot bands from drug-treated samples. The concentration-response curve is fitted to estimate the drug concentration corresponding to half the grayscale value.
(§6) Target protein remaining (%) refers to the percentage of target protein remaining in cells after treatment with protein degrader compounds.
(§7) Calculation method for target protein remaining (%): Use ImageJ software to measure grayscale values of Western blot bands from drug (protein degrader)-treated samples. The grayscale value of drug-treated bands is divided by that of internal control protein bands, and the resulting quotient is normalized to obtain the relative percentage of remaining target protein after protein degrader treatment. Target protein degradation rate(%) = 1−target protein remaining(%). [formula]

CDK6 = target: T2, CDK6 (Homo sapiens, UniProt Q00534); assay: as above; format: cell-based; conditions: substrate protein remaining %, treated at 500 nM and 50 nM, 24 hours
T2 construct: endogenous in cells; host or cells: MDA-MB-231
Protocol: as §1, §2, §3, §4, §5, §6, §7

[1] = target: T3, human Cereblon WT GST-tagged protein (Homo sapiens, UniProt Q96SW2); assay: CRBN-binding affinity, HTRF (CEREBLON BINDING kit); conditions: for inhibition at 0.5 µM: read-out: Inhibition Rate at 0.5 µM (%); for inhibition at 2 µM: read-out: Inhibition Rate at 2 µM (%); for IC50: CRBN binding, HTRF
T3 construct: purchased CISBIO 64BDCRBNPEH
Outline: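 Binding to GST-tagged Cereblon was probed by HTRF tracer displacement (thalidomide-red acceptor, anti-GST Eu donor), with compounds present at final 2 µM and 0.5 µM.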

WEE1 = assay: Western blot, substrate protein degradation in hPBMC Cell; format: cell-based, Human; conditions: substrate protein remaining %, treated at 50 nM and 500 nM, 24 hours
Protocol: as §1, §2, §3, §4, §5, §6, §7

CK1α = target: T4, CK1α (Homo sapiens, UniProt P48729+Q96SW2); assay: as above; format: cell-based; conditions: substrate protein remaining %, treated at 50 nM and 500 nM, 24 hours
T4 construct: endogenous in cells; host or cells: hPBMC
Protocol: as §1, §2, §3, §4, §5, §6, §7

GSPT1 = target: T5, GSPT1 (Homo sapiens, UniProt P15170+Q96SW2); assay: as above; format: cell-based; conditions: substrate protein remaining %, treated at 50 nM and 500 nM, 24 hours
T5 construct: endogenous in cells; host or cells: hPBMC
Protocol: as §1, §2, §3, §4, §5, §6, §7

IKZF1 = target: T6, IKZF1 (Homo sapiens, UniProt Q13422+Q96SW2); assay: as above; format: cell-based; conditions: substrate protein remaining %, treated at 50 nM and 500 nM, 24 hours
T6 construct: endogenous in cells; host or cells: hPBMC
Protocol: as §1, §2, §3, §4, §5, §6, §7

IKZF2 = target: T7, IKZF2 (Homo sapiens, UniProt Q96SW2+Q9UKS7); assay: as above; format: cell-based; conditions: substrate protein remaining %, treated at 50 nM and 500 nM, 24 hours
T7 construct: endogenous in cells; host or cells: hPBMC
Protocol: as §1, §2, §3, §4, §5, §6, §7

IKZF3 = target: T8, IKZF3 (Homo sapiens, UniProt Q96SW2+Q9UKT9); assay: as above; format: cell-based; conditions: substrate protein remaining %, treated at 50 nM and 500 nM, 24 hours
T8 construct: endogenous in cells; host or cells: hPBMC
Protocol: as §1, §2, §3, §4, §5, §6, §7

MV-4-11 = assay: Tumor cell proliferation inhibition (CellTiter-Meiluncell Luminescent Cell Viability Assay); format: cell-based; conditions: Homo sapiens, 96 hours, Table I-9, CDK4/6 inhibitors
Outline: (§8)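 Following overnight seeding, tumor cells received serial compound dilutions to final levels that included 10 nM and 500 nM. Viability was assessed by luminescence at the end of the specified exposure time. Cultures were kept at 37°C with 5% CO2.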

MM.1S = assay: as above; format: cell-based; conditions: MM.1S, 96 hours; for inhibition at 0.01 µM / inhibition at 0.5 µM: Homo sapiens, MM1.S; for inhibition at 0.01 µM: read-out: Inhibition Rate at 10 nM (%); for inhibition at 0.5 µM: 500 nM, read-out: Inhibition Rate at 500 nM (%)
Outline: as §8

SR = assay: as above; conditions: Homo sapiens, 96 hours, Table I-1, designed based on the ALK inhibitors, read-out: Inhibitory activity (IC50, nM) SR
Protocol: The tumor cells used herein were cultured in a cell culture medium listed in table 3 at 37°C in an incubator with 5% CO2. Prior to experimentation, all cell lines used were correctly identified by STR profiling, and tested negative for mycoplasma contamination using a mycoplasma detection kit through routine screenings. Table 3. Tumor cells and cell culture medium used in the present disclosure
The IC50 values of the compounds of the present disclosure (including the compounds in Table 1, Table 2, and Examples) were determined using the CellTiter-Meiluncell Luminescent Cell Viability Assay Kit from Dalian Meilun Biotech Co., Ltd. The detailed procedure is as follows: Tumor cells were seeded in 96-well cell culture plates at the densities specified in Table 4. On the following day, the test compounds of the present disclosure were subjected to serial dilution. […] Subsequently, 0.5 µL of the test compound dilution was transferred into the 96-well plate containing the cells, with each well containing 100 µL of cell culture medium. […] Into the 96-well plate, the diluted test compounds and corresponding detection reagents were added, resulting in final test compound concentrations of 500 nM and 10 nM, respectively. The experimental procedure is described below using the diluted 2 µM test compound as an example.
0.5 µL of the aforementioned diluted compound of the present disclosure (including the compounds in Table 1, Table 2, and Examples) was added to the seeded cells in 100 µL of medium, yielding a final test compound concentration of 10 nM. After the cells were treated with the compounds of the present disclosure for a specified period, the cell viability assay reagent was added to the culture medium according to the kit's instructions to determine cell viability. […] All controls were treated using the same procedure as the compounds of the present disclosure. […] Seeding protocol and treatment time for tumor cells

ALK = target: T9, ALK (Homo sapiens, UniProt Q96SW2+Q9HC35+Q9UM73); assay: Western blot, target protein degradation in H2228 Cell; format: cell-based; conditions: substrate protein remaining %, treated at 500 nM and 50 nM, 24 hours
T9 construct: endogenous in cells; host or cells: H2228
Protocol: as §1, §2, §3, §4, §5, §6, §7

[2] = Table I-16, compounds of Formula (II)
[3] = 10 nM, Table I-16, compounds of Formula (II)

T1 sequence (P11802 whole entry): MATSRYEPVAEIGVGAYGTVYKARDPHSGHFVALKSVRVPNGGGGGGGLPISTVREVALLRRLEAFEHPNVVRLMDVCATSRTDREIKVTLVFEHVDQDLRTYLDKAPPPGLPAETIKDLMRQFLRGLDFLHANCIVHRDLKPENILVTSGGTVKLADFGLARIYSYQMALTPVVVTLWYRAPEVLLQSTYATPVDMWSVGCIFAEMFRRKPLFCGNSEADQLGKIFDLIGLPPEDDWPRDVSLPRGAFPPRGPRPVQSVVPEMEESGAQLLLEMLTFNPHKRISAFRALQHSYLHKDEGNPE
T2 sequence (Q00534 whole entry): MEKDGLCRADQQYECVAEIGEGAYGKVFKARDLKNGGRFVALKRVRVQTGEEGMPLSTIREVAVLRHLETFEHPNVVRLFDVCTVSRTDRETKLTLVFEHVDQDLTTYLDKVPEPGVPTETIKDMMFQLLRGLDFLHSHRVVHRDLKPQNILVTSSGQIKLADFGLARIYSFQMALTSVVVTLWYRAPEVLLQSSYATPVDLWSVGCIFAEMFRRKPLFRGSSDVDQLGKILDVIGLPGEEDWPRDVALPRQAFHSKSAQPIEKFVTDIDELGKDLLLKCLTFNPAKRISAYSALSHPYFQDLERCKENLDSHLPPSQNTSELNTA
T8 sequence (Q9UKT9 whole entry): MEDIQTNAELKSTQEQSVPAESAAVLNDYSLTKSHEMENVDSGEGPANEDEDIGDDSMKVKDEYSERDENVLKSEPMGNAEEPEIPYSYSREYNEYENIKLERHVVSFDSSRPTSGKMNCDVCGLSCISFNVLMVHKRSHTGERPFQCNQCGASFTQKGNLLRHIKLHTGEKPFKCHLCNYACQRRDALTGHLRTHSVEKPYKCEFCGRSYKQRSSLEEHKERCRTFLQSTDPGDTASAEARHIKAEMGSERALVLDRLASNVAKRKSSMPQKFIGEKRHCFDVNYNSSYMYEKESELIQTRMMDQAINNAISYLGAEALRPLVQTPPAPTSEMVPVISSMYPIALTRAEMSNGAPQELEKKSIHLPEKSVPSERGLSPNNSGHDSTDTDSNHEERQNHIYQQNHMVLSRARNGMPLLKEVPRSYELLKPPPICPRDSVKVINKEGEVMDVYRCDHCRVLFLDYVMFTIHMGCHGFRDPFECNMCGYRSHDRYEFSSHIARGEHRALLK
T8 sequence (Q96SW2 whole entry): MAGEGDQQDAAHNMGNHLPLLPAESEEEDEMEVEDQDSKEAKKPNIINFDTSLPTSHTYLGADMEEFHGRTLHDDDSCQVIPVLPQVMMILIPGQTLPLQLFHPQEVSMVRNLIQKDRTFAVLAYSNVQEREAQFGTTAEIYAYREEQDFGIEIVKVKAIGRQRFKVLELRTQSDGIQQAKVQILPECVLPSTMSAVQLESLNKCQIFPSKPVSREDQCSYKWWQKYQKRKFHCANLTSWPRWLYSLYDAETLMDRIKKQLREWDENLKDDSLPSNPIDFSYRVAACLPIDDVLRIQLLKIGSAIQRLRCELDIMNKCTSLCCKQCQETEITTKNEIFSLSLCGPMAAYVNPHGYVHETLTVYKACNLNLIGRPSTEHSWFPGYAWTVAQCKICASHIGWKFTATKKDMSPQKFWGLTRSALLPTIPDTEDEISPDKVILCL
T8 sequence (Q16531 whole entry partner): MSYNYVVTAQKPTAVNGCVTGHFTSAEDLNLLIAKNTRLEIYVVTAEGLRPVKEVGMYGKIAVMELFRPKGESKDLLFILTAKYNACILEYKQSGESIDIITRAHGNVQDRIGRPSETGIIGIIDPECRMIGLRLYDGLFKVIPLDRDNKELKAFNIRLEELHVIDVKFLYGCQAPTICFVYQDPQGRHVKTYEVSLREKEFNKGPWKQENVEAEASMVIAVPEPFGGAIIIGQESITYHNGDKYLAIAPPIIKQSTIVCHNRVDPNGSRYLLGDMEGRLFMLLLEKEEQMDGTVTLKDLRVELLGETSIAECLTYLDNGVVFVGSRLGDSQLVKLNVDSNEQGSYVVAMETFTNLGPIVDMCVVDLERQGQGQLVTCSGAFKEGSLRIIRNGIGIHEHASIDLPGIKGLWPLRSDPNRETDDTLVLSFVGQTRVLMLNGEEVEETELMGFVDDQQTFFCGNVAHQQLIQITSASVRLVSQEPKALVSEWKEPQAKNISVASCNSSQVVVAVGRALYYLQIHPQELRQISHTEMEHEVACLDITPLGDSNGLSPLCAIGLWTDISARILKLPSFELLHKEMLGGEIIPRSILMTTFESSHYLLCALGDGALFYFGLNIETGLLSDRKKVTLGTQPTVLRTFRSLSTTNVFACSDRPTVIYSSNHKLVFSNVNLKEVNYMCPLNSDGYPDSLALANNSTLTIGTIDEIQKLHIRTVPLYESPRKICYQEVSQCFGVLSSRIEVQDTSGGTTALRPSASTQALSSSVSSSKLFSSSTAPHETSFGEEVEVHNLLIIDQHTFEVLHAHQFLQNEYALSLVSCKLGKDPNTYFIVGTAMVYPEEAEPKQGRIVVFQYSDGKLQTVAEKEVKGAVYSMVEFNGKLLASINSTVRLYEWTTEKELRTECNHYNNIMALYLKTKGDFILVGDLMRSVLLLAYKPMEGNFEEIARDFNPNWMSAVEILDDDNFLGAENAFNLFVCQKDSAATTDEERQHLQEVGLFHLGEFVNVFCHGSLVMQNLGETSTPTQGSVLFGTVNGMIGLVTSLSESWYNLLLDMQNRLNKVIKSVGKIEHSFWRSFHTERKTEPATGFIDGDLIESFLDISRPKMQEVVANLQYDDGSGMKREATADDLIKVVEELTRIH
T3 sequence (Q96SW2 whole entry): as the sequence (Q96SW2 whole entry) above
T5 sequence (P15170 whole entry): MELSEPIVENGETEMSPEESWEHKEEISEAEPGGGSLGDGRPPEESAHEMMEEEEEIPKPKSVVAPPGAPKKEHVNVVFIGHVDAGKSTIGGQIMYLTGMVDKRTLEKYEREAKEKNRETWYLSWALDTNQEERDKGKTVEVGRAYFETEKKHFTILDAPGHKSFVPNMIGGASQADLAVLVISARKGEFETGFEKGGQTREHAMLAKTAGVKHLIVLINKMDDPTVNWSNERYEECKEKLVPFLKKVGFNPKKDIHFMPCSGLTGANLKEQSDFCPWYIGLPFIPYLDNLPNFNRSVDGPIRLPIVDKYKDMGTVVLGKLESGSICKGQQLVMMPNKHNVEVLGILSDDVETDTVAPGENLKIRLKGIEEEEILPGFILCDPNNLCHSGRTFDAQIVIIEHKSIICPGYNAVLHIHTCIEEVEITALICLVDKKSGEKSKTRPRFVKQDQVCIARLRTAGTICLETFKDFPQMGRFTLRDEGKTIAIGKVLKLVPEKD
T5 sequence (Q96SW2 whole entry): as the sequence (Q96SW2 whole entry) above
T5 sequence (Q16531 whole entry partner): as the sequence (Q16531 whole entry partner) above
T7 sequence (Q9UKS7 whole entry): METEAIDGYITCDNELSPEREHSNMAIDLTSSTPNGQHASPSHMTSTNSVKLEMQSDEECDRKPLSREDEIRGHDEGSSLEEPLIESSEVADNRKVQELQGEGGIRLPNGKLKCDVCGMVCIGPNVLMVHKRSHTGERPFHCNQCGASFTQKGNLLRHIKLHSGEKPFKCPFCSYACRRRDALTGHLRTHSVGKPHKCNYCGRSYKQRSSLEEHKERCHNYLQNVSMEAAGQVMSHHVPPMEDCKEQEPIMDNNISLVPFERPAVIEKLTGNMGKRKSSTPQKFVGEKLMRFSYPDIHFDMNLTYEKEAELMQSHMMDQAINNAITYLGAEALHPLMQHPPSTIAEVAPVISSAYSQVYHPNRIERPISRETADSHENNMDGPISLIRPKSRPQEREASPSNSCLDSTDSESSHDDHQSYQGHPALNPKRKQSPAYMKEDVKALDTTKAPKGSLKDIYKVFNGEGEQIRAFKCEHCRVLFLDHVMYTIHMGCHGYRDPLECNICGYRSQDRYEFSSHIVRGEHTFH
T7 sequence (Q96SW2 whole entry): as the sequence (Q96SW2 whole entry) above
T7 sequence (Q16531 whole entry partner): as the sequence (Q16531 whole entry partner) above
T6 sequence (Q13422 whole entry): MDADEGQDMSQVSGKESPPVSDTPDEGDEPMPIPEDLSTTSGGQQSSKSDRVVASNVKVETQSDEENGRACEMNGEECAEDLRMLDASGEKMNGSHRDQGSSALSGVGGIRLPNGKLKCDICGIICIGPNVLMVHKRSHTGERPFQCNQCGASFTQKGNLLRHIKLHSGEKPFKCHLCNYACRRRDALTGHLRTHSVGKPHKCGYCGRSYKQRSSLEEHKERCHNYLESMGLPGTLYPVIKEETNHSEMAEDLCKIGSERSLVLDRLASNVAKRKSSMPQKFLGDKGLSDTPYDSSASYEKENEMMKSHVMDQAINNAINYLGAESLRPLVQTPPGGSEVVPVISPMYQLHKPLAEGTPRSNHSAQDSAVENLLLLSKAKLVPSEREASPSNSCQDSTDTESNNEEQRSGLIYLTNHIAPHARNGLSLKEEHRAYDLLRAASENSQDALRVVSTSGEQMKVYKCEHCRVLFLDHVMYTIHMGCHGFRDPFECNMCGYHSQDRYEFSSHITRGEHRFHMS
T6 sequence (Q96SW2 whole entry): as the sequence (Q96SW2 whole entry) above
T6 sequence (Q16531 whole entry partner): as the sequence (Q16531 whole entry partner) above

SMILES	Degradation of substrate protein CDK4 (CDK4)	Degradation of substrate protein CDK6 (CDK6)	inhibition at 0.5 µM [1]	inhibition at 2 µM [1]	Degradation of substrate protein WEE1 (WEE1)	Degradation of substrate protein CK1α (CK1α)	Degradation of substrate protein GSPT1 (GSPT1)	Degradation of substrate protein IKZF1 (IKZF1)	Degradation of substrate protein IKZF2 (IKZF2)	Degradation of substrate protein IKZF3 (IKZF3)	IC50 [1]	further results
CC(=O)c1c(C)c2cnc(Nc3ccc(N4CCN(Cc5ccc6c(c5)CN(C5CCC(=O)NC5=O)C6=S)CC4)cn3)nc2n(C2CCCC2)c1=O (stereo not drawn) [GT-08766, 3-(5-((4-(6-((6-acetyl-8-cyclopentyl-5-methyl-7-oxo-7,8-dihydropyrido[2,3-d]pyrimidin-2-yl)amino)pyridin-3-yl)piperazin-1-yl)methyl)-1-thioxoisoindolin-2-yl)piperidine-2,6-dione]	A (0% ≤ substrate protein remaining % ≤ 80%)	A (0% ≤ substrate protein remaining % ≤ 80%)	53 to 60%	80 to 100%	–	–	–	–	–	–	–	–
O=C1CCC(N2Cc3ccccc3C2=S)C(=O)N1 (stereo not drawn) [GT-05563, 3-(1-thioxoisoindolin-2-yl)piperidine-2,6-dione]	–	–	–	–	A (0% ≤ substrate protein remaining % ≤ 80%)	B (80%< substrate protein remaining %≤ 100%)	A (0% ≤ substrate protein remaining % ≤ 80%)	A (0% ≤ substrate protein remaining % ≤ 80%)	A (0% ≤ substrate protein remaining % ≤ 80%)	A (0% ≤ substrate protein remaining % ≤ 80%)	< 500 nM	–
CC(=O)c1c(C)c2cnc(Nc3ccc(N4CCN(Cc5cccc6c5CN(C5CCC(=O)NC5=O)C6=S)CC4)cn3)nc2n(C2CCCC2)c1=O (stereo not drawn) [GT-08772, 3-(4-((4-(6-((6-acetyl-8-cyclopentyl-5-methyl-7-oxo-7,8-dihydropyrido[2,3-d]pyrimidin-2-yl)amino)pyridin-3-yl)piperazin-1-yl)methyl)-1-thioxoisoindolin-2-yl)piperidine-2,6-dione]	A (0% ≤ substrate protein remaining % ≤ 80%)	A (0% ≤ substrate protein remaining % ≤ 80%)	–	–	–	–	–	–	–	–	–	inhibition at 0.01 µM (MV-4-11; MV4-11, 10 nM, read-out: Inhibition Rate at 10 nM (%)): 30 to 40%; inhibition at 0.5 µM (MV-4-11; MV4-11, 500 nM, read-out: Inhibition Rate at 500 nM (%)): 40 to 50%
CN(C)C(=O)c1cc2cnc(Nc3ccc(N4CCN(Cc5ccc6c(c5)CN(C5CCC(=O)NC5=O)C6=S)CC4)cn3)nc2n1C1CCCC1 (stereo not drawn) [GT-08765, 7-cyclopentyl-2-((5-(4-((2-(2,6-dioxopiperidin-3-yl)-1-thioxoisoindolin-5-yl)methyl)piperazin-1-yl)pyridin-2-yl)amino)-N,N-dimethyl-7H-pyrrolo[2,3-d]pyrimidine-6-carboxamide]	A (0% ≤ substrate protein remaining % ≤ 80%)	A (0% ≤ substrate protein remaining % ≤ 80%)	40 to 53%	80 to 100%	–	–	–	–	–	–	–	inhibition at 0.01 µM (MM.1S; 10 nM, Table I-9, CDK4/6 inhibitors): 30 to 40%; inhibition at 0.5 µM (MM.1S; Table I-9, CDK4/6 inhibitors): 40 to 50%
O=C1CCC(N2Cc3cc(CO)ccc3C2=S)C(=O)N1 (stereo not drawn) [GT-06977, 3-(5-(hydroxymethyl)-1-thioxoisoindolin-2-yl)piperidine-2,6-dione]	–	–	–	–	B (80%< substrate protein remaining %≤ 100%)	B (80%< substrate protein remaining %≤ 100%)	B (80%< substrate protein remaining %≤ 100%)	B (80%< substrate protein remaining %≤ 100%)	B (80%< substrate protein remaining %≤ 100%)	A (0% ≤ substrate protein remaining % ≤ 80%)	< 500 nM	inhibition at 0.5 µM (MM.1S; [2]): 35 to 40%; Inhibition Rate at 10 nM (%) (MM.1S; [3]): ln6
O=C1CCC(N2Cc3c(CO)cccc3C2=S)C(=O)N1 (stereo not drawn) [GT-06981, 3-(4-(hydroxymethyl)-1-thioxoisoindolin-2-yl)piperidine-2,6-dione]	–	–	–	–	B (80%< substrate protein remaining %≤ 100%)	B (80%< substrate protein remaining %≤ 100%)	B (80%< substrate protein remaining %≤ 100%)	B (80%< substrate protein remaining %≤ 100%)	B (80%< substrate protein remaining %≤ 100%)	A (0% ≤ substrate protein remaining % ≤ 80%)	< 500 nM	inhibition at 0.01 µM (MM.1S; [3]): 20 to 30%; inhibition at 0.5 µM (MM.1S; [2]): 35 to 40%
O=C1CCC(N2Cc3ccc(CO)cc3C2=S)C(=O)N1 (stereo not drawn) [GT-05566, 3-(6-(hydroxymethyl)-1-thioxoisoindolin-2-yl)piperidine-2,6-dione]	–	–	–	–	A (0% ≤ substrate protein remaining % ≤ 80%)	B (80%< substrate protein remaining %≤ 100%)	A (0% ≤ substrate protein remaining % ≤ 80%)	A (0% ≤ substrate protein remaining % ≤ 80%)	A (0% ≤ substrate protein remaining % ≤ 80%)	A (0% ≤ substrate protein remaining % ≤ 80%)	< 500 nM	inhibition at 0.01 µM (MM.1S; [3]): 20 to 30%
CCc1cc2c(cc1N1CCC(N3CCN(Cc4ccc5c(c4)CN(C4CCC(=O)NC4=O)C5=S)CC3)CC1)C(C)(C)c1[nH]c3cc(C#N)ccc3c1C2=O (stereo not drawn) [GT-05097, 8-(4-(4-((2-(2,6-dioxopiperidin-3-yl)-1-thioxoisoindolin-5-yl)methyl)piperazin-1-yl)piperidin-1-yl)-9-ethyl-6,6-dimethyl-11-oxo-6,11-dihydro-5H-benzo[b]carbazole-3-carbonitrile]	–	–	40 to 53%	80 to 100%	–	–	–	–	–	–	–	IC50 (SR): 20 to 30 nM; Degradation of substrate protein ALK (ALK): A (0% ≤ substrate protein remaining % ≤ 80%)
